Data on 1 compound can be found in article PMC6813295, “A tumour-selective cascade activatable self-detained system for drug delivery and cancer imaging” (Nature Communications, 2019).

The test system of this assay is H460 tumour-bearing nude mice. The assay can be described thus: In vivo antitumor efficacy and safety of treatment. Also noted: species or system mouse. The conditions noted are these: five times, n = 5. From the text:
Data are presented as mean ± s.d.
(1 picture or pasted object on this page, not shown here)

On to `COc1cccc2c1C(=O)c1c(O)c3c(c(O)c1C2=O)C[C@@](O)(C(=O)CO)C[C@@H]3O[C@H]1C[C@H](N)[C@H](O)[C@H](C)O1` [DOX, doxorubicin], for which, where the note is “i.v. DOX dose 2.0 mg/kg, once every other day”, the “mean tumour volume after 14 days” value worked out at 854 mm^3. This compound displayed a median survival time (i.v. identical DOX dose 2.0 mg/kg, Kaplan–Meier) of 12 days.
